The values below come from PMC7026885, “Macrofilaricidal Benzimidazole–Benzoxaborole Hybrids as an Approach to the Treatment of River Blindness: Part 1. Amide Linked Analogs” (ACS Infectious Diseases, 2019).

The test system of one data set is rat whole embryo culture. Set-up: method as in PMID 23287076, PMID 24994687. The following applies: cited from earlier work.
The test system of the next data set is Brugia malayi. Kind of data set: Adult Brugia malayi transplantation in vivo model in gerbils. Particulars: for adult worm reduction / animals with no worms: B. malayi, necropsy day 42, QD. The method, then: (§1) We characterized the in vitro ADME properties of 8a in preparation for evaluation of this compound in our primary in vivo model in gerbils. […] We were pleased to find that 8a was able to kill 100% of both male and female worms in the gerbil peritoneum when dosed subcutaneously at 100 mg/kg/day for 14 days as a suspension in a nonsolubilizing HEC/Tween vehicle. […] The subsequent assessment of the pharmacokinetics of 8a from these two dosing paradigms provided an interesting observation that we believe to be important in understanding the PK–PD requirements for achieving efficacy in this animal model. […] We had made the same observation in a positive control group using flubendazole at a subcutaneous dose of 10 mg/kg/day for 5 days in the nonsolubilizing HEC/Tween vehicle, namely, that plasma levels of flubendazole were maintained above the in vitro IC50 (4 nM) for over 42 days, consistent with data reported in the literature.[43] […] We next examined 8a in two additional in vivo models, the first where L3 B. pahangi larvae were injected into the peritoneum of gerbils and allowed to develop into adult worms[45] and a second where gerbils were naturally infected by the filarial nematode Litomosoides sigmodontis.[46],[47] In both of these models, 8a was administered subcutaneously at 100 mg/kg for 14 days or orally at 100 mg/kg for 28 days as a suspension. […] Additionally, when plasma obtained from treated animals at necropsy was analyzed for 8a, we observed an outcome similar to that observed in the adult implantation model, e.g., that measurable levels were present at this time point in the subcutaneous-dosed groups but not in the orally dosed groups, weeks after administration of the drug. In a final L. sigmodontis experiment with 8a, we dosed the compound subcutaneously at 300 mg/kg for 7 days as a suspension.
Plates were incubated at 37 °C in a 5% CO2 incubator for 6 days, then molting was assessed visually using an inverted microscope. Molting was determined in each well by counting the presence of fourth stage larvae (L4s) and empty casts of L3s.
The percent inhibition of molting was calculated based on the number of treated larvae that were able to molt in comparison to the number of control larvae that had successfully molted. IC50 values were calculated using GraphPad Prism v6.0
(http://www.graphpad.com). See Bullman et al., PLoS Negl. Trop.
Adult Brugia malayi transplantation in vivo model procedure.
Gerbils (Meriones unguiculatus) were infected by transplantation of 10 male and 10 female adult Brugia malayi into the peritoneal cavity. Gerbils were acclimated for 7 days prior to treatment. Animals were dosed based on their body weight prior to each dosing. Animals were administered their doses at the same time each day and receive standard rodent laboratory diet and water ad libitum. Gerbils were humanely euthanized at the conclusion of each study. Peritoneal counts of male and female adult B. malayi and visual condition of the peritoneum were recorded.
Brugia pahangi L3 injection in vivo model procedure 8.
Male gerbils (Meriones unguiculatus) approximately 6 weeks of age (50-60 g) were purchased from Charles Rivers (USA, Kingston K62 Gerbils) and infected by intraperitoneal injection with 200 Brugia pahangi third-stage larvae (L3) per animal
(Filariatech, Inc., Athens, GA). Gerbils were housed with no more than 5 animals per cage and maintained 9 months prior to treatment. All gerbils were dosed in accordance with their body weight determined prior to each dosing. Animals were […]

Data set [1] in a line: MDR1-MDCK monolayer permeability assay. Format: in vitro ADME. The following applies: dog. Here is the method:
as §1

The subject of a further data set is pregnant female rats. More on the design: method as in PMID 23287076, PMID 24994687. The following applies: dosed to pregnant female rats; cited from earlier work.
Data set [2] relates to micronucleus. Set-up: method as in PMID 26443851. Particulars: in vivo; cited from earlier work.
Data set [3] relates to micronucleus. Set-up: method as in PMID 26443851. Particulars: in vitro; cited from earlier work.
Data set [4] is described as follows: Metabolic stability in gerbil microsomes. Format: in vitro ADME. Here is the method: We characterized the in vitro ADME properties of 8a in preparation for evaluation of this compound in our primary in vivo model in gerbils. […] We were pleased to find that 8a was able to kill 100% of both male and female worms in the gerbil peritoneum when dosed subcutaneously at 100 mg/kg/day for 14 days as a suspension in a nonsolubilizing HEC/Tween vehicle. […] The subsequent assessment of the pharmacokinetics of 8a from these two dosing paradigms provided an interesting observation that we believe to be important in understanding the PK–PD requirements for achieving efficacy in this animal model. […] We had made the same observation in a positive control group using flubendazole at a subcutaneous dose of 10 mg/kg/day for 5 days in the nonsolubilizing HEC/Tween vehicle, namely, that plasma levels of flubendazole were maintained above the in vitro IC50 (4 nM) for over 42 days, consistent with data reported in the literature.[43] […] Additionally, when plasma obtained from treated animals at necropsy was analyzed for 8a, we observed an outcome similar to that observed in the adult implantation model, e.g., that measurable levels were present at this time point in the subcutaneous-dosed groups but not in the orally dosed groups, weeks after administration of the drug. […]

The test system of a further data set is MDR1-MDCK monolayer. Nature of the data set: MDR1-MDCK monolayer permeability assay. Format: in vitro ADME. The following applies: dog. The method, then: as §1
Setting [5] is: 100 mg/kg × 14 days, SC (suspension).
Where [6] appears, read: 100 mg/kg × 28 days, PO (suspension).
The mark [7] stands for this setting: 150 mg/kg × 14 days, SC (solution).

The structures appear in SMILES notation. Read-outs that look alike come from different tables or passages of the source. A value given as a limit tells only on which side of the number the result lay.

As a reminder, the Papp A→B is how fast a substance crosses the layer from the apical side. Consider `COC(=O)Nc1nc2cc(C(=O)c3ccc(F)cc3)ccc2[nH]1` [compound 1, Flubendazole, reference compound], for which the embryotoxicity entry in the data set on rat whole embryo culture and in the data set on pregnant female rats was “potentially embryotoxic” throughout. In addition, in the data set with Brugia malayi (10 mg/kg × 5 days, SC), the adult worm reduction was determined as 100%/100%. In the data set with Brugia malayi (10 mg/kg × 5 days, SC), the “animals with no worms” value was found to be 100%/100%. Further, the Papp A→B in data set [1] (A-B, Table 1, read-out: MDCK-MDR1 Papp (A-B)) was 156 nm/s. The micronucleus test result in the data set on micronucleus [2] and in the data set with micronucleus [3] was “aneugen” throughout.

The microsomal CLint is the rate of metabolic loss divided by the concentration. Read a high microsomal CLint as faster metabolism. As for `COC(=O)Nc1nc2cc(C(=O)NCc3ccc4c(c3)B(O)OC4(C)C)ccc2[nH]1` [8a], the microsomal CLint in data set [4] is less than 4 µL/min/mg. The results for the adult worm reduction in the data set on Brugia malayi (setting [5]), in the data set with Brugia malayi (setting [6]) and in the data set with Brugia malayi (setting [7]) were 100%, 12.5% and 83.3%, respectively. In addition, the “animals with no worms” value is 87.5% with Brugia malayi (setting [5]), 0% with Brugia malayi (setting [6]) and 50% with Brugia malayi (setting [7]). In addition, the in vivo efficacy entry in the data set with Brugia malayi (SC 150 mg/kg/day as a solution in DMSO/water vehicle) is reported as “substantially reduced”. Also, the “kill of both male and female worms in the gerbil peritoneum” value in the data set with Brugia malayi (implanted adult B. malayi or B. pahangi, SC 100 mg/kg/day for 14 days, suspension in HEC/Tween vehicle) is 100%. In the data set on Brugia malayi (oral, 100 mg/kg/day for 28 days), the “in vivo efficacy by the oral route” value was “not efficacious”. Moreover, the “Papp with Pgp efflux inhibitor GF-120918” value in the data set on MDR1-MDCK monolayer was 2.7 × 10^–6 cm/s. In addition, in data set [1], the Papp A→B is 8 nm/s.
